Data published in patent US20250320246A1, “3-AZASTEROID COMPOUNDS FOR THE TREATMENT OF DISEASES RELATED TO MITROCHONDRIAL FUNCTION” (NZP UK LIMITED, priority 2022, published 2025).

Key:
Type in all cases: cell-based, human
[1] = tested on: iNeurons from sPD patients; test: Mitochondrial membrane potential (MMP) in iNeurons from sPD patients
Experimental: (§1) The fibroblasts lines and iNPC lines have previously been characterised and published in Carling et al, 2020.
(§2) Briefly, iNPCs are plated in a 6-well plate and cultured for 2 days in DMEM/F-12 medium with Glutamax™ supplemented with 1% NEAA, 2% B27 (Gibco) and 2.5 μM of DAPT. On day 3, DAPT is removed and the medium is supplemented with 1 μM smoothened agonist (SAG) and FGF8 (75 ng/ml) for additional 10 days. Neurons are replated at this stage. Subsequently SAG and FGF8 are withdrawn and replaced with BDNF (30 ng/ml), GDNF (30 ng/ml), TGF-b3 ([…]) and dcAMP (2 mM, Sigma) for 15 days, as previously described Schwartzentruber et al, 2020 and Carling et al, 2020. Dopaminergic neurons were treated with compounds at concentrations of 0.1 nM, 1 nM, 3 nM, 10 nM, 30 nM and 100 nM dosing every 3 days for the last 12 days of differentiation.
(§3) iNeurons were treated every 3 days for the last 12 days of the differentiation protocol. Cells are plated in 96 well plates; for live imaging cells are incubated for one hour at 37° C. with 80 nM tetramethlyrhodamine (TMRM), 1 μM LysoTracker® Green (Invitrogen) and Hoechst Stain solution (Sigma) at 1 μM before imaging using Opera Phenix™. Cellular ATP measurements are undertaken using ATPlite kit (Perkin Elmer) as per manufacturer's instructions. Mitochondrial reactive oxygen species generation was assessed using mitochondrial NpFR2 (probe; a kind gift from Dr Liz New, University of Sydney, Australia) at 20 μM and Hoechst stain solution at 1 μM for 30 mins at 37° C., then the dyes are removed and cells images using Opera Phenix™. Images generated from the live imaging experiments were analysed using Harmony® (Perkin Elmer software). We developed protocols in order to segment nucleus, cell boundary and processes, mitochondria, lysosomes, autophagosomes. We only analysed the z projection images collected from the z stacks.

[2] = tested on: iNeurons from sPD patients; test: Cellular ATP in iNeurons (dopaminergic neurons derived from sPD patients)
Experimental: as §1, §2, §3

[3] = tested on: sporadic Parkinson's disease patient fibroblast lines; test: Mitochondrial respiration (oxygen consumption rate), Seahorse Mito Stress test; conditions: 50 nM for 24 hours, sPD fibroblasts
Experimental: Oxygen consumption rate (OCR) was measured by the Agilent Seahorse Mito Stress test using a 24-well Agilent Seahorse XF analyzer machine (Agilent). Human fibroblasts where plated at a density of 60,000 cells per well. Cells were treated with compound 50 nM for 24 hours prior to measurement. 3 measurements of OCR were taken in each state: basal state, after addition of oligomycin (0.5 μM), FCCP (0.5 μM) and rotenone (1 μM). A cell count was then done on a fixed assay plate using a Hoechst dye (1 μM). Data presented is normalized to cell number.

[4] = tested on: sporadic PD patient fibroblasts; test: Cellular ATP levels in sporadic PD patient fibroblasts, full ATP assay; conditions: Homo sapiens, Fibroblast, 24 h, 3 sporadic PD patient fibroblasts

- EC50 ([1]; Homo sapiens, sPD patient iNeurons, dosing every 3 days for last 12 days of differentiation): 8.2 nM
- EC50 ([2]; Homo sapiens, Neuron, sPD patient iNeurons, dosing every 3 days for last 12 days of differentiation): 5 nM
SMILES: C[C@H](CCCC(=O)O)[C@H]1CC[C@H]2[C@@H]3[C@@H](O)C[C@@H]4CNCC[C@]4(C)[C@H]3CC[C@]12C.Cl [Compound 28b, 3-Aza-7β-hydroxy-25-homo-5β-cholan-25-oic acid hydrochloride]
- MMP normalisation (% of controls) ([1]; sPD patient iNeurons treated, untreated sPD patients 52): 76 % of controls
- effect on mitochondrial parameters in sPD derived dopaminergic neurons ([2]; both mitochondrial parameters (Table 3)): provides a protective effect on both mitochondrial parameters
- ATP normalisation (% of controls) ([2]; sPD patient iNeurons treated, untreated sPD patients 50): 94.3 % of controls
- basal mitochondrial respiration ([3]; p<0.05, vehicle sPD reduced 30% vs controls): increases basal respiration in the sPD fibroblasts to control levels
- ATP linked respiration ([3]; to a lesser extent, vehicle sPD reduced 23% vs controls): Increases are also seen
- spare respiratory capacity ([3]; to a lesser extent, vehicle sPD reduced 42% vs controls): Increases are also seen
- EC50 ([4]; 8-point range 0.06 nM-300 nM): 32.9 nM
- Emax at 0.3 µM ([4]; max response with highest dose of compound (300 nM), read-out: ATP % of vehicle, top %): 138%
- activity at 60 pM ([4]; max response with lowest dose of compound (0.06 nM), read-out: ATP % of vehicle, bottom %): 94.6%
